The text below walks through data of US6242445A, “Benzimidazole derivative” (Kureha Chemical Industry Co., Ltd., priority 1998, dated 2001).

Experiment [1] relates to kidney disease model rats. Kind of experiment: Action to lower blood pressure in kidney disease model rats. The format is in vivo, Sprague-Dawley female rats. Particulars: 20 mg/kg oral. How it is done:
(§1) In this Example, an action to lower blood pressure was evaluated. That is, each of 2-ethoxy-1-[[4'- (2'-N,N-dimethylamino-ethoxycarbonyl) phenyl]methyl]-1H-benzimidazole-6-carboxylic acid morpholide (Compound No. 13) prepared in Example 6, 2-ethoxy-1-[[4'-(2"-morpholinoethoxycarbonyl)-phenyl]methyl]-1H-benzimidazole-6-carboxylic acid piperidinamide (Compound No. 57) prepared in Example 28, or the reference substance was forcibly orally administered to kidney disease model rats, and the action of lowering the blood pressure was observed. The kidney disease model rats were prepared by a ligature of branches of renal artery in accordance with a conventional method. Namely, the left hilum renalis of Sprague-Dawley female rats was exposed under anesthesia, and one of four secondary branches of the renal artery was left unligated, while the remaining three branches were ligated, respectively. After a week, the hilum renalis (artery, vein, and ureter) of the right kidney were further ligated to thereby prepare rats whose renal function was lowered to approximately 1/8 of the normal function. Each group consisted of eight rats. The drugs to be tested (20 mg/kg) were administered to each administering group, and only water was administered to a control group. Two days after the administration, the systolic blood pressure was measured by the tail cuff method using a blood pressure measuring apparatus (UR^5000; Ueda).

Experiment [2] concerns kidney disease model rats. Kind of experiment: Action to kidney diseases, renal function indicatory values. As to conditions: 20 mg/kg/day, two weeks. The format is in vivo, Sprague-Dawley female rats. How it is done:
The kidney disease model rats were prepared by a ligature of branches of renal artery in accordance with a conventional method. Namely, the left hilum renalis of Sprague-Dawley female rats was exposed under anesthesia, and one of four secondary branches of the renal artery was left unligated, while the remaining three branches were ligated, respectively. After a week, the hilum renalis (artery, vein, and ureter) of the right kidney were further ligated to thereby prepare rats whose renal function was lowered to approximately 1/8 of the normal function. Each group consisted of eight rats. The drugs to be tested (20 mg/kg) were administered to each administering group, and only water was administered to a control group. Two days after the administration, the systolic blood pressure was measured by the tail cuff method using a blood pressure measuring apparatus (UR^5000; Ueda).
In this Example, an action to kidney diseases was evaluated on the basis of a renal function indicatory value.
Fifteen groups (8 rats per group) were prepared in a manner such that there was no major difference between the groups in the serum creatinine value and the blood urea nitrogen value indicating renal function. The rats in each group were allowed to freely take up food and water. […] To the rats in the control group, only water was forcibly orally administered every day. After two weeks, 0.2 ml of blood was collected from the carotid artery of the rats under anesthesia, and centrifuged to obtain serum. Using 25 μl of the serum, the serum creatinine (Scr) was measured by a creatinine analytical instrument (Beckman). Using 10 μl of the serum, the blood urea nitrogen (BUN) was measured by a BUN analytical instrument (Beckman). The creatinine clearance was evaluated as follows:
After the serum creatinine measurement, rats were placed in urinary metabolic cages for 24 hours to collect urine. A urinary creatine concentration (Ucr) was measured by a creatinine analytical instrument, and a total volume of urination (Uvol) was also measured. The creatinine clearance (CCr) was calculated by the following formula: [formula]
In the above formula, the unit of "Ucr" and "Scr" is "mg/ml" and the unit of "Uvol" is "ml".

Experiment [3] concerns kidney disease model rats. Kind of experiment: Survival time of kidney diseased animals. Type of experiment: in vivo, Sprague-Dawley female rats. As to conditions: 20 mg/kg/day; observation period eight weeks (upper limit); control 5.0. How it is done: as §1
In this Example, an action to survival time of kidney diseased animals was evaluated. As compounds to be examined, 2-ethoxy-1-[[4'-(2"-N,N-dimethylamino-ethoxycarbonyl)-phenyl]methyl]-1H-benzimidazole-6-carboxylic acid morpholide (Compound No. 13) prepared in Example 6, and 2-ethoxy-1-[[4'-(2"-morpholinoethoxycarbonyl)phenyl]methyl]-1H-benzimidazole-6-carboxylic acid piperidinamide (Compound No. 57) prepared in Example 28 were used.
The kidney disease model rats were prepared as in Example 38. Fifteen groups (8 rats per group) were prepared in a manner such that there was no major difference between the groups in the serum creatinine value and the blood urea nitrogen value indicating renal function. The rats in each group were allowed to freely take up food and water. […] To the rats in the control group, only water was forcibly orally administered every day. If kidney diseases are aggravated, the rat will die of uremia. Thus, the survival time was observed as a comprehensive indication of the improvement of the effect on the kidney diseases. The observation period was eight weeks. Thus if all rats survived, the average survival time is eight weeks, and is an upper limit.

Experiment [4] has as its system rat suffering from a kidney disease. As to conditions: J. Clinical Invest., 90: 766-771, 1992; cited from earlier work.
The subject of experiment [5] is rat suffering from hyperlipemia. As to conditions: Nephron, 65: 426-432, 1993, cited from earlier work.

Read-outs that look alike come from different tables or passages of the source.

As for `CCCCc1nc(Cl)c(CO)n1Cc1ccc(-c2ccccc2-c2nnn[nH]2)cc1` [DuP753, 2-butyl-4-chloro-5-(hydroxymethyl)-1-[[2'-(1H-tetrazole-5-yl)biphenyl-4-yl]methyl]imidazole, reference compound], the “action of lowering the blood pressure” value in experiment [1] (in comparison with the control group) is recorded as “clearly exhibited the action of lowering the blood pressure”. This compound also came in with a Blood pressure in experiment [1] (systolic, tail cuff, average, two days after administration, control 210) of 130 mmHg. The same compound returned a Creatinine clearance in experiment [2] (control 0.22) of 0.32 mL/min. Besides, the Creatinine in experiment [2] (serum, control 2.0) is 1.6 mg/dL. Besides, the Blood urea nitrogen in experiment [2] (serum, control 100) worked out at 80 mg/dL. Also, the Average survival time in experiment [3] is recorded as 6.9 weeks. Further, in experiment [4], the “effect in proteinuria and glomerulosclerosis” value is “effective in proteinuria and glomerulosclerosis”; the “lowering of the blood pressure” value was “explicit lowering of the blood pressure”. Further, in experiment [5] (higher dose), the “lowering of the blood pressure” value is listed as “explicit lowering of the blood pressure” and the renal lesion entry is “more effective in the renal lesion”. Also, in experiment [5] (lower dose), the “influence on the blood pressure” value is recorded as “without a substantial influence on the blood pressure” and the renal lesion result is given as “renal lesion is improved”.
